Reference: patent US7767713B2, “Linoleic acid active agents for enhancing probability of becoming pregnant” (Palo Alto Investors, priority 2004, dated 2010)

How the values were obtained:
[1] = system: uterine lining Th1/Th2 balance; experiment: Animal model, immune function of the uterine lining; assay type: in vivo; details: intravaginal injection, intrauterine injection or soaked vaginal sponge; versus sterile saline control animals
Experimental: An animal model is used to determine the effects of linoleic acid on immune function of the uterine lining. Linoleic acid is delivered via several different methods—direct injection of the linoleic acid formulation into the vagina, direct injection of linoleic acid formulation into the uterus, linoleic acid soaked into a sponge and placed into the vagina. Control animals have sterile saline instilled in place of linoleic acid. The animals are then sacrificed, and the uterine lining is analyzed for changes in immunologic activity.

[2] = system: female patients unable to achieve a successful pregnancy; experiment: Open-label oral treatment of infertility clinic patients; assay type: in vivo, human; details: oral form, 100 mg-5 g/day for three months, patients unable to achieve pregnancy for at least six months
Experimental: Several patients from an active infertility clinic population are selected for open-label treatment with linoleic acid. All female patients have been unable to achieve a successful pregnancy for at least six months. Linoleic acid is formulated into a pharmaceutical oral form at a dosage of 100 mg-5 g/day for three months.

SMILES: CCCCC/C=C\C/C=C\CCCCCCCC(=O)O [linoleic acid, Linoleic acid]
- Changes in Th1/Th2 balance of uterine lining [1]: Changes in Th1/Th2 balance are seen
- Successful pregnancies [2]: Successful pregnancies are seen in at least one patient
